One assay addresses hNav1.7 (Homo sapiens, UniProt Q15858). The experiment in a line: cell-based. As to conditions: Nav1.7 Use IC50.
In the next assay the target is hNav1.5 (Homo sapiens, UniProt Q14524). The experiment in a line: cell-based.

Positions of bridges follow the written chain, without caps; N, C: chain ends. Non-standard residues stand in square brackets, D forms with d. Residues, ends and D or L forms follow the SMILES beside them. Trp(1-Me) = Cn1cc(C[C@H](N)C(=O)O)c2ccccc21

Sequence of hNav1.7 (Q15858 whole entry, looked up): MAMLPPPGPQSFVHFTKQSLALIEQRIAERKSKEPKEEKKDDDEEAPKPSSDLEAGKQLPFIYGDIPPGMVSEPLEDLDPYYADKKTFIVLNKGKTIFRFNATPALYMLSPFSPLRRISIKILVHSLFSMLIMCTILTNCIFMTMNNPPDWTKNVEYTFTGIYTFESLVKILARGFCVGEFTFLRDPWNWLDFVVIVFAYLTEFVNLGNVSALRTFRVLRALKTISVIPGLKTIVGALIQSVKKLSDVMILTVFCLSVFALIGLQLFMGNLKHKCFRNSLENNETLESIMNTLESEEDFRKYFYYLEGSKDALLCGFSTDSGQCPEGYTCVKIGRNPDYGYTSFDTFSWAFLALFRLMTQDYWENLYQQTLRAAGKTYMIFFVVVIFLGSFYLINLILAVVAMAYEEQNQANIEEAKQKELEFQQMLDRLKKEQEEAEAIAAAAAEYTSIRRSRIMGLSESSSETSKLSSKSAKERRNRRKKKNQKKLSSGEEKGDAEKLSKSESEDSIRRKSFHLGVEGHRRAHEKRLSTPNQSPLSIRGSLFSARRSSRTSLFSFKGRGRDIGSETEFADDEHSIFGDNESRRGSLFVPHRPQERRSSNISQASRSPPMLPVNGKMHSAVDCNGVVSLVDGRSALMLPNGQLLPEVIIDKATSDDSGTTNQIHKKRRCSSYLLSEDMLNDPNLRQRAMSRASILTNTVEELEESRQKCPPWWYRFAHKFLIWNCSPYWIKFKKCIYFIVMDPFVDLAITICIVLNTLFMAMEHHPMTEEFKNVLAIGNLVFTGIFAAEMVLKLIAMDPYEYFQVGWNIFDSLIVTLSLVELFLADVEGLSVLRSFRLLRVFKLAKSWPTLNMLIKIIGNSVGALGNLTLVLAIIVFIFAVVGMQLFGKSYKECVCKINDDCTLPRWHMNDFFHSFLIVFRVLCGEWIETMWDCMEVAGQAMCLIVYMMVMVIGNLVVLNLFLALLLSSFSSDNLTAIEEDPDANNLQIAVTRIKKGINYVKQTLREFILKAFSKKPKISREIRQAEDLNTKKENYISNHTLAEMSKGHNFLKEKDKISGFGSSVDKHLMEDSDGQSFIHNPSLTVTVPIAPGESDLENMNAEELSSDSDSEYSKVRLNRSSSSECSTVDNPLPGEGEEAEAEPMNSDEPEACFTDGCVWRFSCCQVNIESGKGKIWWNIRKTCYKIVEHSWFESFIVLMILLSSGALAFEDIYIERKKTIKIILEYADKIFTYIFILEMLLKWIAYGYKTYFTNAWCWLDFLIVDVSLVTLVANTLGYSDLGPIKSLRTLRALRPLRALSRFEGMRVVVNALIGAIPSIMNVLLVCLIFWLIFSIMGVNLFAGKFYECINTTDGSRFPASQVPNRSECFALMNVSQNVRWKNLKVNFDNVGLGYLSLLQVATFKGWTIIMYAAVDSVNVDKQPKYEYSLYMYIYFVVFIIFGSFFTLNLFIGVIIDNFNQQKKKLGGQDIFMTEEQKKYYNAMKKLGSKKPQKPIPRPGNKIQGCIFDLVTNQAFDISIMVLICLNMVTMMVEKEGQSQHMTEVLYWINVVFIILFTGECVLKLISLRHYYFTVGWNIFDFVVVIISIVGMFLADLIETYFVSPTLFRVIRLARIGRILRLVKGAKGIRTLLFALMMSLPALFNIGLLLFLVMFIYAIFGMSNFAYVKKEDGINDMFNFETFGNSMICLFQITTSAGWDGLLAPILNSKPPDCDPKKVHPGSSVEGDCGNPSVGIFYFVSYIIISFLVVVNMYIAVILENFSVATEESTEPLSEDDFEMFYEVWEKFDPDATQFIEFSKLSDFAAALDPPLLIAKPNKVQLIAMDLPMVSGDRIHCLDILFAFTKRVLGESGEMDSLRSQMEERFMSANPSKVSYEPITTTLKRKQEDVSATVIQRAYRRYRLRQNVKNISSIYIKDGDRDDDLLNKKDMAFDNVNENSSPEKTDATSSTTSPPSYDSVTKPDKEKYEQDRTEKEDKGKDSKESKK
Sequence of hNav1.5 (Q14524 whole entry, looked up): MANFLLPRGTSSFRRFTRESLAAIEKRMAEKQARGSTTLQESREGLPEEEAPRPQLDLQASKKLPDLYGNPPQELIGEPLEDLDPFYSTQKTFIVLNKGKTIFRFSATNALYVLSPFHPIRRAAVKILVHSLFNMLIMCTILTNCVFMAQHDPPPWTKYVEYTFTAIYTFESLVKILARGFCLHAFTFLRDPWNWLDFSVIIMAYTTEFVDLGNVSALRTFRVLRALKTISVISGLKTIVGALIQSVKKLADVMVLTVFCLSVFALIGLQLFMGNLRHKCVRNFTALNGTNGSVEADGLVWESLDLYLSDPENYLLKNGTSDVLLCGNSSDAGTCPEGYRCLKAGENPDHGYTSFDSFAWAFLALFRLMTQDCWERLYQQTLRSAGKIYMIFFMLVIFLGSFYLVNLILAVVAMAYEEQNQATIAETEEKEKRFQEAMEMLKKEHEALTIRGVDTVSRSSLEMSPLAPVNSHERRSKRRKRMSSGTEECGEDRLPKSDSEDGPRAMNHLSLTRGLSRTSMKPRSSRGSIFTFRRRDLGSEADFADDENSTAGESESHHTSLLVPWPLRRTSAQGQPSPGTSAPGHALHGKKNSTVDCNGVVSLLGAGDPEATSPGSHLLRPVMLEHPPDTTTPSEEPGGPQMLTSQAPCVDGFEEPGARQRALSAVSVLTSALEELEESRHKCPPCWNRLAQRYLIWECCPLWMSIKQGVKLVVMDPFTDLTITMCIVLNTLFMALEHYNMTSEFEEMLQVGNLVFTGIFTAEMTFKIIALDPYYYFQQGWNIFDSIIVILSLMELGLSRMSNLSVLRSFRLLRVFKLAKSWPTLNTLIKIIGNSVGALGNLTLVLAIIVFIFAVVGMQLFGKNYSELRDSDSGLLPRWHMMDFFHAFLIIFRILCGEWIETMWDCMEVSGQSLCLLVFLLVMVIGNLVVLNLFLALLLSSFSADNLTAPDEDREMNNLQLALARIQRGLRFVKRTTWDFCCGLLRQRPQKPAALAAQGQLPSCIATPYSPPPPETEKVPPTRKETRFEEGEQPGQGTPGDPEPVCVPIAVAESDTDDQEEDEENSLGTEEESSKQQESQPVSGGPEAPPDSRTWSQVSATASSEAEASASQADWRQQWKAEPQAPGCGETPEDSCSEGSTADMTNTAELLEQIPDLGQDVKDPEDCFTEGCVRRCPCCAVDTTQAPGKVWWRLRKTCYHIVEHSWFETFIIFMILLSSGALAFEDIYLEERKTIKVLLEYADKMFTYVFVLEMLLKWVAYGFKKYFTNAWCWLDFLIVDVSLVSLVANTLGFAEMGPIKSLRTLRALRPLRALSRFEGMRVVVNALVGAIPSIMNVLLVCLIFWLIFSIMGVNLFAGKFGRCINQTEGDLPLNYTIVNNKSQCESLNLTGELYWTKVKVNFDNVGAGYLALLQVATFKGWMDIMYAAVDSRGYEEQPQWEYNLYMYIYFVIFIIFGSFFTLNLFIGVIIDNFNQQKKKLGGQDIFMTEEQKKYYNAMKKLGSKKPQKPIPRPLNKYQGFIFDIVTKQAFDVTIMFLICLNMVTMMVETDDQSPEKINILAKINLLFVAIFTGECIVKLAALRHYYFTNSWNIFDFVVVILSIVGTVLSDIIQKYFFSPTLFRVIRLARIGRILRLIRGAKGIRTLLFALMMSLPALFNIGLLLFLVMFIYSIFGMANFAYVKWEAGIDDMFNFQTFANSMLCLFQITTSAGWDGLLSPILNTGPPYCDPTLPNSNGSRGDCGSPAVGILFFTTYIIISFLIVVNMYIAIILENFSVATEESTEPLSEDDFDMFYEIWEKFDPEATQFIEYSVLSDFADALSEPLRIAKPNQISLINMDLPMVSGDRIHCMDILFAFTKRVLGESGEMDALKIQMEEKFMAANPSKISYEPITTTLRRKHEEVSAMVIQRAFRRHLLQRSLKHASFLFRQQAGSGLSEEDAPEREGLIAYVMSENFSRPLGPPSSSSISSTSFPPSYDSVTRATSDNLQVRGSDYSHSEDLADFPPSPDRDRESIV

As to `CC[C@H](C)[C@@H]1NC(=O)[C@@H]2CSSC[C@@H]3NC(=O)[C@H](C(C)C)NC(=O)[C@H](CC(C)C)NC(=O)[C@H](CC(N)=O)NC(=O)[C@@H]4CCCN4C(=O)[C@H](CCCNC(=N)N)NC(=O)[C@H](CSSC[C@H](NC(=O)[C@@H](N)CC(=O)O)C(=O)N[C@@H](CC(C)C)C(=O)NCC(=O)N[C@@H](CC(C)C)C(=O)N[C@@H](CC(C)C)C(=O)N[C@@H](CCCNC(=N)N)C(=O)N[C@@H](CCCCN)C(=O)N2)NC(=O)[C@H](CSSC[C@@H](C(=O)N[C@@H](CCCCN)C(=O)N[C@@H](Cc2ccc(O)cc2)C(=O)N[C@H](C(=O)N[C@@H](Cc2ccccc2)C(N)=O)C(C)C)NC(=O)[C@H](Cc2c[nH]c4ccccc24)NC(=O)[C@H](CCCCN)NC(=O)[C@H](Cc2c[nH]cn2)NC(=O)[C@H]([C@@H](C)O)NC(=O)[C@H](CCCNC(=N)N)NC(=O)[C@H](CO)NC3=O)NC(=O)[C@H](CCCCN)NC(=O)[C@H](CC(=O)O)NC(=O)[C@H](CC(N)=O)NC(=O)[C@H](CC(=O)O)NC(=O)[C@@H]2CCCN2C1=O` [[Leu5,6]GpTx-1(1-34)] (H-DCLGLLRKCIPDNDKCCRPNLVCSRTHKWCKYVF-NH2; disulfide 2-17, 9-23, 16-30), the IC50 (commonly the concentration that inhibits the measured activity by half) was 11 nM on hNav1.7 and > 10000 nM on hNav1.5.
With `CC[C@H](C)[C@@H]1NC(=O)[C@@H]2CSSC[C@@H]3NC(=O)[C@H](C(C)C)NC(=O)[C@H](CC(C)C)NC(=O)[C@H](CC(N)=O)NC(=O)[C@@H]4CCCN4C(=O)[C@H](CCCCN)NC(=O)[C@H](CSSC[C@H](NC(=O)[C@@H](N)CC(=O)O)C(=O)N[C@@H](CC(C)C)C(=O)NCC(=O)N[C@@H](Cc4ccccc4)C(=O)N[C@@H](CCSC)C(=O)N[C@@H](CCCNC(=N)N)C(=O)N[C@@H](CCCCN)C(=O)N2)NC(=O)[C@H](CSSC[C@@H](C(=O)N[C@@H](CCCCN)C(=O)N[C@@H](Cc2ccc(O)cc2)C(=O)N[C@H](C(=O)N[C@@H](Cc2ccccc2)C(N)=O)C(C)C)NC(=O)[C@H](Cc2c[nH]c4ccccc24)NC(=O)[C@H](CCCCN)NC(=O)[C@H](Cc2cnc[nH]2)NC(=O)[C@H]([C@@H](C)O)NC(=O)[C@H](CCCNC(=N)N)NC(=O)[C@H](CO)NC3=O)NC(=O)[C@H](CCCCN)NC(=O)[C@H](CC(=O)O)NC(=O)[C@H](CC(N)=O)NC(=O)[C@H](CC(=O)O)NC(=O)[C@@H]2CCCN2C1=O` [[Lys18]GpTx-1(1-34)] (H-DCLGFMRKCIPDNDKCCKPNLVCSRTHKWCKYVF-NH2; disulfide 2-17, 9-23, 16-30), the figures for the IC50 against hNav1.7 and against hNav1.5 were 2 nM and 16400 nM, respectively.
The like results for `CC[C@H](C)[C@@H]1NC(=O)[C@@H]2CSSC[C@@H]3NC(=O)[C@H](C(C)C)NC(=O)[C@H](CC(C)C)NC(=O)[C@H](CC(N)=O)NC(=O)[C@H](CCCCN)NC(=O)[C@H](CCCNC(=N)N)NC(=O)[C@H](CSSC[C@H](NC(=O)[C@@H](N)CC(=O)O)C(=O)N[C@@H](CC(C)C)C(=O)NCC(=O)N[C@@H](Cc4ccccc4)C(=O)N[C@@H](CCSC)C(=O)N[C@@H](CCCNC(=N)N)C(=O)N[C@@H](CCCCN)C(=O)N2)NC(=O)[C@H](CSSC[C@@H](C(=O)N[C@@H](CCCCN)C(=O)N[C@@H](Cc2ccc(O)cc2)C(=O)N[C@H](C(=O)N[C@@H](Cc2ccccc2)C(N)=O)C(C)C)NC(=O)[C@H](Cc2c[nH]c4ccccc24)NC(=O)[C@H](CCCCN)NC(=O)[C@H](Cc2cnc[nH]2)NC(=O)[C@H]([C@@H](C)O)NC(=O)[C@H](CCCNC(=N)N)NC(=O)[C@H](CO)NC3=O)NC(=O)[C@H](CCCCN)NC(=O)[C@H](CC(=O)O)NC(=O)[C@H](CC(N)=O)NC(=O)[C@H](CC(=O)O)NC(=O)[C@@H]2CCCN2C1=O` [[Lys19]GpTx-1(1-34)] (H-DCLGFMRKCIPDNDKCCRKNLVCSRTHKWCKYVF-NH2; disulfide 2-17, 9-23, 16-30) were, in that order, 3 nM and 9100 nM.
Turning to `CC[C@H](C)[C@@H]1NC(=O)[C@@H]2CSSC[C@@H]3NC(=O)[C@H](C(C)C)NC(=O)[C@H](CC(C)C)NC(=O)[C@H](CC(N)=O)NC(=O)[C@@H]4CCCN4C(=O)[C@H](CCCNC(=N)N)NC(=O)[C@H](CSSC[C@H](NC(=O)[C@@H](N)CC(=O)O)C(=O)N[C@@H](CC(C)C)C(=O)NCC(=O)N[C@@H](CCSC)C(=O)N[C@@H](CCSC)C(=O)N[C@@H](CCCNC(=N)N)C(=O)N[C@@H](CCCCN)C(=O)N2)NC(=O)[C@H](CSSC[C@@H](C(=O)N[C@@H](CCCCN)C(=O)N[C@@H](Cc2cn(C)c4ccccc24)C(=O)N[C@H](C(=O)N[C@@H](Cc2ccccc2)C(N)=O)C(C)C)NC(=O)[C@H](Cc2c[nH]c4ccccc24)NC(=O)[C@H](CCCCN)NC(=O)[C@H](Cc2c[nH]cn2)NC(=O)[C@H]([C@@H](C)O)NC(=O)[C@H](CCCNC(=N)N)NC(=O)[C@H](CO)NC3=O)NC(=O)[C@H](CCCCN)NC(=O)[C@H](CC(=O)O)NC(=O)[C@H](CC(N)=O)NC(=O)[C@H](CC(=O)O)NC(=O)[C@@H]2CCCN2C1=O` [[Met5;1′NMeW32]GpTx-1(1-34)] (H-DCLGMMRKCIPDNDKCCRPNLVCSRTHKWCK[Trp(1-Me)]VF-NH2; disulfide 2-17, 9-23, 16-30), the IC50 is 7 nM against hNav1.7 and 14800 nM against hNav1.5.
Consider `CC[C@H](C)[C@@H]1NC(=O)[C@@H]2CSSC[C@@H]3NC(=O)[C@H](C(C)C)NC(=O)[C@H](CC(C)C)NC(=O)[C@H](CC(N)=O)NC(=O)[C@@H]4CCCN4C(=O)[C@H](CCCNC(=N)N)NC(=O)[C@H](CSSC[C@H](NC(=O)[C@@H](N)CC(=O)O)C(=O)N[C@@H](CC(C)C)C(=O)NCC(=O)N[C@@H](CCSC)C(=O)N[C@@H](CC(C)C)C(=O)N[C@@H](CCCNC(=N)N)C(=O)N[C@@H](CCCCN)C(=O)N2)NC(=O)[C@H](CSSC[C@@H](C(=O)N[C@@H](CCCCN)C(=O)N[C@@H](Cc2ccc(O)cc2)C(=O)N[C@H](C(=O)N[C@@H](Cc2ccccc2)C(N)=O)C(C)C)NC(=O)[C@H](Cc2c[nH]c4ccccc24)NC(=O)[C@H](CCCCN)NC(=O)[C@H](Cc2c[nH]cn2)NC(=O)[C@H]([C@@H](C)O)NC(=O)[C@H](CCCNC(=N)N)NC(=O)[C@H](CO)NC3=O)NC(=O)[C@H](CCCCN)NC(=O)[C@H](CC(=O)O)NC(=O)[C@H](CC(N)=O)NC(=O)[C@H](CC(=O)O)NC(=O)[C@@H]2CCCN2C1=O` [[Met5;Leu6]GpTx-1(1-34)] (H-DCLGMLRKCIPDNDKCCRPNLVCSRTHKWCKYVF-NH2; disulfide 2-17, 9-23, 16-30), for which the figures for the IC50 against hNav1.7 and against hNav1.5 were 270 nM and > 10000 nM, respectively.
In the case of `CC[C@H](C)[C@@H]1NC(=O)[C@@H]2CSSC[C@@H]3NC(=O)[C@H](C(C)C)NC(=O)[C@H](CC(C)C)NC(=O)[C@H](CC(N)=O)NC(=O)[C@@H]4CCCN4C(=O)[C@H](CCCNC(=N)N)NC(=O)[C@H](CSSC[C@H](NC(=O)[C@@H](N)CC(=O)O)C(=O)N[C@@H](CC(C)C)C(=O)NCC(=O)N(C)[C@@H](CC(C)C)C(=O)N[C@@H](CC(C)C)C(=O)N[C@@H](CCCNC(=N)N)C(=O)N[C@@H](CCCCN)C(=O)N2)NC(=O)[C@H](CSSC[C@@H](C(=O)N[C@@H](CCCCN)C(=O)N[C@@H](Cc2ccc(O)cc2)C(=O)N[C@H](C(=O)N[C@@H](Cc2ccccc2)C(N)=O)C(C)C)NC(=O)[C@H](Cc2c[nH]c4ccccc24)NC(=O)[C@H](CCCCN)NC(=O)[C@H](Cc2c[nH]cn2)NC(=O)[C@H]([C@@H](C)O)NC(=O)[C@H](CCCNC(=N)N)NC(=O)[C@H](CO)NC3=O)NC(=O)[C@H](CCCCN)NC(=O)[C@H](CC(=O)O)NC(=O)[C@H](CC(N)=O)NC(=O)[C@H](CC(=O)O)NC(=O)[C@@H]2CCCN2C1=O` [[NMeLeu5;Leu6]GpTx-1(1-34)], the results for the IC50 on hNav1.7 and against hNav1.5 were 12 nM and > 10000 nM, respectively.
On the same counts, the results for `CC[C@H](C)[C@@H]1NC(=O)[C@@H]2CSSC[C@@H]3NC(=O)[C@H](C(C)C)NC(=O)[C@H](CC(C)C)NC(=O)[C@H](CC(N)=O)NC(=O)[C@@H]4CCCN4C(=O)[C@H](CCCNC(=N)N)NC(=O)[C@H](CSSC[C@H](NC(=O)[C@@H](N)CC(=O)O)C(=O)N[C@@H](CC(C)C)C(=O)NCC(=O)N(C)[C@@H](Cc4ccccc4)C(=O)N[C@@H](CC(C)C)C(=O)N[C@@H](CCCNC(=N)N)C(=O)N[C@@H](CCCCN)C(=O)N2)NC(=O)[C@H](CSSC[C@@H](C(=O)N[C@@H](CCCCN)C(=O)N[C@@H](Cc2ccc(O)cc2)C(=O)N[C@H](C(=O)N[C@@H](Cc2ccccc2)C(N)=O)C(C)C)NC(=O)[C@H](Cc2c[nH]c4ccccc24)NC(=O)[C@H](CCCCN)NC(=O)[C@H](Cc2c[nH]cn2)NC(=O)[C@H]([C@@H](C)O)NC(=O)[C@H](CCCNC(=N)N)NC(=O)[C@H](CO)NC3=O)NC(=O)[C@H](CCCCN)NC(=O)[C@H](CC(=O)O)NC(=O)[C@H](CC(N)=O)NC(=O)[C@H](CC(=O)O)NC(=O)[C@@H]2CCCN2C1=O` [[NMePhe5;Leu6]GpTx-1(1-34)] are 12 nM and 11300 nM.
The like results for `CC[C@H](C)[C@@H]1NC(=O)[C@@H]2CSSC[C@@H]3NC(=O)[C@H](C(C)C)NC(=O)[C@H](CC(C)C)NC(=O)[C@H](CC(N)=O)NC(=O)[C@@H]4CCCN4C(=O)[C@H](CCCNC(=N)N)NC(=O)[C@H](CSSC[C@H](NC(=O)[C@@H](N)CC(=O)O)C(=O)N[C@@H](CC(C)C)C(=O)NCC(=O)N(C)[C@@H](Cc4ccccc4)C(=O)N[C@@H](CCSC)C(=O)N[C@@H](CCCNC(=N)N)C(=O)N[C@@H](CCCCN)C(=O)N2)NC(=O)[C@H](CSSC[C@@H](C(=O)N[C@@H](CCCCN)C(=O)N[C@@H](Cc2ccc(O)cc2)C(=O)N[C@H](C(=O)N[C@@H](Cc2ccccc2)C(N)=O)C(C)C)NC(=O)[C@H](Cc2c[nH]c4ccccc24)NC(=O)[C@H](CCCCN)NC(=O)[C@H](Cc2c[nH]cn2)NC(=O)[C@H]([C@@H](C)O)NC(=O)[C@H](CCCNC(=N)N)NC(=O)[C@H](CO)NC3=O)NC(=O)[C@H](CCCCN)NC(=O)[C@H](CC(=O)O)NC(=O)[C@H](CC(N)=O)NC(=O)[C@H](CC(=O)O)NC(=O)[C@@H]2CCCN2C1=O` [[NMePhe5]GpTx-1(1-34)] were, in that order, 18 nM and > 10000 nM.

The record behind these values is US9340590B2 (priority 2011, dated 2016).
